Results reported in US20200079758A1, “[4-(PHENYLSULFONYL)PIPERAZIN-1-YL](1H-1,2,3-TRIAZOL-4-YL)METHANONES” (priority 2016, published 2020).

Target: T1, recombinant human AKR1C3 (Homo sapiens, UniProt P42330)
T1 construct: GST (cleaved yes); made in house; host or cells: E. coli
T1 sequence (P42330 1-323): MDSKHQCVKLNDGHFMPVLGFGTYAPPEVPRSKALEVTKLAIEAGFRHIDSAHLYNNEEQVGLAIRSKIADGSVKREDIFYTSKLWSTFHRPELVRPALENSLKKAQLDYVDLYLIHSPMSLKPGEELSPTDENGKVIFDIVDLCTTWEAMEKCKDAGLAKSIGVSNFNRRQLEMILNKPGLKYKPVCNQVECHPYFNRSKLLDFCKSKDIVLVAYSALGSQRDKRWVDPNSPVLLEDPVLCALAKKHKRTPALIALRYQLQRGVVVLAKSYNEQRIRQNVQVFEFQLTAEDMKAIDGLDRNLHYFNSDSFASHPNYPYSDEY
Assay: AKR1C3-inhibitory activity assay (generation of Coumberol from Coumberone)
Type: biochemical
Conditions: Coumberone 0.3 μM, NADPH 10 μM, 22° C., typically 90 min, average or median values
Method: The AKR1C3-inhibitory activity of the substances of the present invention was measured in the AKR1C3 assay described in the paragraphs below.
Essentially, the enzyme activity is measured by quantification of the generation of Coumberol from Coumberone (Halim et al. J. AM. CHEM. SOC. 2008, 130:14123-14128 and Yee et al. Proc. Natl. Acad. Sci. USA 2006, 103:13304-13309). In this test, the increase of the highly fluorescent Coumberol by NADPH- (nicotinamide adenine dinucleotide phosphate)-dependent reduction of the non-fluorescent Coumberone by AKR1C3 was determined.
The enzyme used was recombinant human AKR1C3 (Aldo-keto reductase family 1 member C3; GenBank Accession No. NM_003739). This was expressed in E. coli as GST (glutathione S transferase) fusion protein and purified by glutathione Sepharose affinity chromatography. The GST was removed by digestion with thrombin and subsequent size exclusion chromatography (Dufort, I., Rheault, P., Huang, X F., Soucy, P., and Luu-The, V., Endocrinology 140, 568-574 (1999)).
For the assay, 50 nl of a 100-fold concentrated solution of the test substance in DMSO were pipetted into a black low-volume 384-well microtiter plate (Greiner Bio-One, Frickenhausen, Germany), 2.5 μl of a solution of AKR1C3 in assay buffer [50 mM potassium phosphate buffer pH 7, 1 mM DTT, 0.0022% (w/v) Pluronic F-127, 0.01% BSA (w/v) and protease inhibitor cocktail (Complete, EDTA-free Protease Inhibitor Cocktail from Roche)] were added and the mixture was incubated for 15 min to allow pre-binding of the substances to the enzyme prior to the enzyme reaction. The enzyme reaction was then started by addition of 2.5 μl of a solution of NADPH (20 μM→final concentration in 5 μl of assay volume is 10 μM) and Coumberone (0.6 μM→final concentration in 5 μl of assay volume is 0.3 μM) in assay buffer, and the resulting mixture was incubated at 22° C. for the reaction time of typically 90 min. The concentration of the AKR1C3 and the reaction time was adapted to the respective activity of the enzyme preparation and adjusted such that the assay was carried out in the linear range. Typical AKR1C3 concentrations were in the region of 1 nM. The reaction was stopped by addition of 2.5 μl of a stop solution consisting of 3 μM EM-1404 as inhibitor (U.S. Pat. No. 6,541,463) in 50 mM HEPES pH7.5 (3 μM EM-1404→final concentration in 7.5 μl of assay volume is 1 μM). The fluorescence of the Coumberole was then measured at 520 nm (excitation at 380 nm) using a suitable measuring instrument (Pherastar from BMG Labtechnologies). The intensity of the fluorescence was used as a measure of the amount of Coumberole formed and thus of the enzyme activity of AKR1C3. The data were normalized (enzyme reaction without inhibitor=0% inhibition; all other assay components, but no enzyme=100% inhibition).

| Compound | IC50 [nM] |
| --- | --- |
| C[C@@H]1CN(C(=O)c2c[nH]nn2)[C@@H](C)CN1S(=O)(=O)c1cccc(Cl)c1F [Example 9, {(2S,5R)-4-[(3-chloro-2-fluorophenyl)sulfonyl]-2,5-dimethylpiperazin-1-yl}(1H-1,2,3-triazol-4-yl)methanone] | 1 |
| CC1(C)CN(C(=O)c2c[nH]nn2)CCN1S(=O)(=O)c1cccc(Cl)c1 [Example 21, {4-[(3-chlorophenyl)sulfonyl]-3,3-dimethylpiperazin-1-yl}(1H-1,2,3-triazol-4-yl)methanone] | 3 |
| CC1(C)CN(C(=O)c2cnn[nH]2)CCN1S(=O)(=O)c1c(F)cccc1F [Example 35, {4-[(2,6-difluorophenyl)sulfonyl]-3,3-dimethylpiperazin-1-yl}(1H-1,2,3-triazol-5-yl)methanone] | 46 |
| CC1(C)CN(C(=O)c2cnn[nH]2)CCN1S(=O)(=O)c1cccc([N+](=O)[O-])c1 [Example 112, {3,3-dimethyl-4-[(3-nitrophenyl)sulfonyl]piperazin-1-yl}(1H-1,2,3-triazol-5-yl)methanone] | 24 |
| C[C@@H]1CN(C(=O)c2cnn[nH]2)C[C@H](C)N1S(=O)(=O)c1cc(F)cc(F)c1 [Example 42, {(3R,5S)-4-[(3,5-difluorophenyl)sulfonyl]-3,5-dimethylpiperazin-1-yl}(1H-1,2,3-triazol-5-yl)methanone] | 9 |
| C[C@@H]1CN(S(=O)(=O)c2cccc(C#N)c2)C[C@H](C)N1C(=O)c1c[nH]nn1 [Example 54, 3-{[(3R,5S)-3,5-dimethyl-4-(1H-1,2,3-triazol-4-ylcarbonyl)piperazin-1-yl]sulfonyl}benzonitrile] | 118 |
| C[C@@H]1CN(C(=O)c2cnn[nH]2)[C@@H](C)CN1S(=O)(=O)c1ccccc1C(F)(F)F [Example 6, [(2S,5R)-2,5-dimethyl-4-{[2-(trifluoromethyl)phenyl]sulfonyl}piperazin-1-yl](1H-1,2,3-triazol-5-yl)methanone] | 2 |
| C[C@@H]1CN(C(=O)c2cnn[nH]2)[C@@H](C)CN1S(=O)(=O)c1cccc2ccccc12 [Example 65, [(2S,5R)-2,5-dimethyl-4-(naphthalen-1-ylsulfonyl)piperazin-1-yl](1H-1,2,3-triazol-5-yl)methanone] | 2 |
| Cc1cccc(S(=O)(=O)N2C[C@@H](C)N(C(=O)c3c[nH]nn3)[C@@H](C)C2)c1 [Example 49, {(2R,6S)-2,6-dimethyl-4-[(3-methylphenyl)sulfonyl]piperazin-1-yl}(1H-1,2,3-triazol-4-yl)methanone] | 6 |
| Cc1cccc(S(=O)(=O)N2C[C@H](C)N(C(=O)c3cnn[nH]3)C[C@H]2C)c1 [Example 75, {(2S,5R)-2,5-dimethyl-4-[(3-methylphenyl)sulfonyl]piperazin-1-yl}(1H-1,2,3-triazol-5-yl)methanone] | 1 |
| C[C@@H]1CN(S(=O)(=O)c2ccccc2C(F)(F)F)C[C@H](C)N1C(=O)c1c[nH]nn1 [Example 47, [(2R,6S)-2,6-dimethyl-4-{[2-(trifluoromethyl)phenyl]sulfonyl}piperazin-1-yl](1H-1,2,3-triazol-4-yl)methanone] | 2 |
| COc1ccc(Cl)cc1S(=O)(=O)N1CCN(C(=O)c2cnn[nH]2)CC1(C)C [Example 124, {4-[(5-chloro-2-methoxyphenyl)sulfonyl]-3,3-dimethylpiperazin-1-yl}(1H-1,2,3-triazol-5-yl)methanone] | 96 |
| C[C@@H]1CN(C(=O)c2cnn[nH]2)[C@@H](C)CN1S(=O)(=O)c1ccc(F)cc1 [Example 66, {(2S,5R)-4-[(4-fluorophenyl)sulfonyl]-2,5-dimethylpiperazin-1-yl}(1H-1,2,3-triazol-5-yl)methanone] | 4 |
| C[C@@H]1CN(C(=O)c2cnn[nH]2)[C@@H](C)CN1S(=O)(=O)c1cc(Cl)ccc1C(F)(F)F [Example 89, [(2S,5R)-4-{[5-chloro-2-(trifluoromethyl)phenyl]sulfonyl}-2,5-dimethylpiperazin-1-yl](1H-1,2,3-triazol-5-yl)methanone] | 2 |
| C[C@@H]1CN(S(=O)(=O)c2c(F)cccc2F)C[C@H](C)N1C(=O)c1c[nH]nn1 [Example 53, {(2R,6S)-4-[(2,6-difluorophenyl)sulfonyl]-2,6-dimethylpiperazin-1-yl}(1H-1,2,3-triazol-4-yl)methanone] | 9 |
| CC(=O)Nc1cccc(S(=O)(=O)N2C[C@H](C)N(C(=O)c3cnn[nH]3)C[C@H]2C)c1 [Example 80, N-(3-{[(2R,5S)-2,5-dimethyl-4-(1H-1,2,3-triazol-5-ylcarbonyl)piperazin-1-yl]sulfonyl}phenyl)acetamide] | 104 |
| C[C@@H]1CN(C(=O)c2cnn[nH]2)C[C@H](C)N1S(=O)(=O)c1cc(Cl)cc(Cl)c1 [Example 40, {(3R,5S)-4-[(3,5-dichlorophenyl)sulfonyl]-3,5-dimethylpiperazin-1-yl}(1H-1,2,3-triazol-5-yl)methanone] | 2 |
| CC1(C)CN(C(=O)c2c[nH]nn2)CCN1S(=O)(=O)c1cc(Cl)ccc1Cl [Example 25, {4-[(2,5-dichlorophenyl)sulfonyl]-3,3-dimethylpiperazin-1-yl}(1H-1,2,3-triazol-4-yl)methanone] | 7 |
| CC1(C)CN(C(=O)c2cnn[nH]2)CCN1S(=O)(=O)c1ccc2c(c1)OCO2 [Example 132, [4-(1,3-benzodioxol-5-ylsulfonyl)-3,3-dimethylpiperazin-1-yl](1H-1,2,3-triazol-5-yl)methanone] | 22 |
| C[C@@H]1CN(C(=O)c2cnn[nH]2)[C@@H](C)CN1S(=O)(=O)c1ccccc1OC(F)(F)F [Example 72, [(2S,5R)-2,5-dimethyl-4-{[2-(trifluoromethoxy)phenyl]sulfonyl}piperazin-1-yl](1H-1,2,3-triazol-5-yl)methanone] | 2 |
| CC1(C)CN(C(=O)c2c[nH]nn2)CCN1S(=O)(=O)c1cc(F)cc(F)c1 [Example 29, {4-[(3,5-difluorophenyl)sulfonyl]-3,3-dimethylpiperazin-1-yl}(1H-1,2,3-triazol-4-yl)methanone] | 11 |
| C[C@@H]1CN(C(=O)c2cnn[nH]2)[C@@H](C)CN1S(=O)(=O)c1ccc(F)c(F)c1 [Example 82, {(2S,5R)-4-[(3,4-difluorophenyl)sulfonyl]-2,5-dimethylpiperazin-1-yl}(1H-1,2,3-triazol-5-yl)methanone] | 2 |
| C[C@@H]1CN(C(=O)c2cnn[nH]2)[C@@H](C)CN1S(=O)(=O)c1ccccc1Br [Example 76, {(2S,5R)-4-[(2-bromophenyl)sulfonyl]-2,5-dimethylpiperazin-1-yl}(1H-1,2,3-triazol-5-yl)methanone] | 1 |
| C[C@@H]1CN(S(=O)(=O)c2cc(Cl)ccc2Cl)C[C@H](C)N1C(=O)c1c[nH]nn1 [Example 43, {(2R,6S)-4-[(2,5-dichlorophenyl)sulfonyl]-2,6-dimethylpiperazin-1-yl}(1H-1,2,3-triazol-4-yl)methanone] | 2 |
| Cc1cc(Cl)cc(S(=O)(=O)N2CCN(C(=O)c3cnn[nH]3)CC2(C)C)c1 [Example 140, {4-[(3-chloro-5-methylphenyl)sulfonyl]-3,3-dimethylpiperazin-1-yl}(1H-1,2,3-triazol-5-yl)methanone] | 2 |
| CC1(C)CN(C(=O)c2cnn[nH]2)CCN1S(=O)(=O)c1ccc2nsnc2c1 [Example 125, [4-(2,1,3-benzothiadiazol-5-ylsulfonyl)-3,3-dimethylpiperazin-1-yl](1H-1,2,3-triazol-5-yl)methanone] | 25 |
| C[C@@H]1CN(S(=O)(=O)c2ccccc2F)C[C@H](C)N1C(=O)c1c[nH]nn1 [Example 51, {(2R,6S)-4-[(2-fluorophenyl)sulfonyl]-2,6-dimethylpiperazin-1-yl}(1H-1,2,3-triazol-4-yl)methanone] | 6 |
